assay: Cytotoxicity against SW1116 cells by MTT colometric method; assay type: functional, cell-based; settings: Homo sapiens, SW 1116

SMILES | IC50
O=C1C[C@H]2[C@@H]3CCC(=O)c4c(O)ccc(c43)[C@]2(O)c2cccc(O)c21 [DALDINONE C] | 49.5 µM
CO[C@H]1C[C@H]2[C@@H]3CCC(=O)c4c(O)ccc(c43)[C@]2(O)c2cccc(O)c21 [DALDINONE D] | 41 µM
O=c1[nH]cc(F)c(=O)[nH]1 [FLUOROURACIL] | 37 µM
